Results reported in patent US20240252508A1, “Novel glucose uptake inhibitors for use in the treatment of cancer” (NOVELYEAST BV, priority 2021, published 2024).
pIC50, pKi: −log10 of the molar value. “Also recorded” adds a separate entry of the source. Where two headings read alike, the source gives them in different places.

Assays:
[1] = system: U266 multiple myeloma cell line; assay: U266 proliferation (cell count); assay type: cell-based, human; settings: 25 μM, 4 days, RPMI with 1 mM glucose
Experimental: a. Cell count of the U266 multiple myeloma cell line after 4 days of growth on RPMI medium with 1 mM glucose. Cells were treated with either DMSO or 25 μM of WBC-A, -15C, -4C or -11C. Glucose consumption (b.) or lactate secretion (c.) rates are shown for U266 cells incubated in RPMI medium supplemented with 1 mM glucose for 8 h.

[2] = system: A549 lung adenocarcinoma cells; assay: A549 cell proliferation / growth inhibition; assay type: cell-based, human; settings: 1 mM glucose; for Potency in reducing maximal growth rate of A549 cells: 6.25-50 μM
In short: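 A549 growth screened in RPMI with 1 mM glucose, compounds at 50 μM; cell number from counts of Hoechst-stained nuclei after 3 days. Growth curves also followed by IncuCyte phase-contrast confluency over 3–5 days (1000–1500 cells/well), DMSO ≤0.1%, ≥4 technical repeats.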

[3] = system: A549 lung adenocarcinoma cells; assay: Steady-state glucose consumption and lactate production in A549 cells; assay type: cell-based, human; settings: 25 μM, 1 mM glucose, 8 h
Experimental: (§1) The influence of WBC compounds on the steady-state glucose consumption rate was studied in the A549 adenocarcinoma and KMS-12-PE multiple myeloma cell lines. As such, different parameters needed to be optimized depending on whether cells were adherent or in suspension. As such, A549 cells were incubated at 125,000 cells/well in a 24-well plate in 300 μL RPMI medium for 8 h. For the KMS-12-PE cell line, 100,000 cells/well were incubated in 100 μL RPMI medium in a 96-well plate for 8 h. Medium was collected, spun down and HPLC-analyzed for measuring glucose and lactate levels. Metabolite levels were corrected for cell number, which always varied little over the span of 8 h. For every condition, at least 4 technical repeats were included.

[4] = system: KMS-12-PE multiple myeloma cells; assay: Steady-state glucose consumption and lactate production in KMS-12-PE cells; assay type: cell-based, human; settings: 25 μM, 1 mM glucose, 8 h
Experimental: as §1

[5] = Warbicin toxicity and tolerability in mice; assay type: in vivo, NMRI-nu mice; settings: for Loss in body weight over 20 days: daily i.p. 5, 10 and 20 mg/kg, nude mice; for AST/ALT ratio vs vehicle: sera after 20 days, 5, 10, 20 mg/kg i.p.; for Blood glucose level vs vehicle: sera post mortem after 20 days, 5, 10, 20 mg/kg i.p.
Experimental: Warbicin in vivo toxicity and tolerability was examined by subjecting NMRI-nu mice to daily intraperitoneal injection of either WBC-A, WBC-15C, WBC-4C or WBC-11C. Compounds were dosed at either 5 mg/kg, 10 mg/kg or 20 mg/kg over a period of 20 days. Three mice were used per condition. To evaluate toxicity, change in body weight was registered daily. As a humane endpoint, mice that lost more than 20% of their original body weight were prematurely sacrificed. An optimal dissolve strategy was developed to administer WBC compounds by intraperitoneal injection. Due to their considerable hydrophobicity, compounds were dissolved in a sterilized 1×PBS, 5% DMSO and 5% Tween-80 solution. For WBC-A, -15C and -4C, this gives an initial clear solution that gradually changes over time into a homogenous suspension which can still be administered in a reproducible way. For WBC-11C it immediately results in a homogenous suspension.

[6] = system: MCF10A breast epithelia cell line transformed with the H-RAS^V12 allele; assay: MCF10A H-RAS^V12 growth and apoptosis (IncuCyte); assay type: cell-based, human; settings: 25 μM
Experimental: For both adherent A549 and MCF10Δ H-RAS^V12 cell lines, growth curves were established using the IncuCyte® ZOOM technology. By collecting phase contrast images, the IncuCyte® software provides a calculated confluency percentage from which growth curves can be deducted.
Cells were seeded at a density of 1000-1500 cells/well in a Nunc-Edge™ 96-well plate (Thermo Fisher Scientific) and growth was typically measured over 3 to 5 days. For the measurement of apoptosis induction using the MCF10Δ H-RAS^V12 cell line, the IncuCyte® Caspase-3/7 green dye was added to the medium in the recommended concentration at the beginning of the growth curve experiment. Apoptosis was detected by taking fluorescent images by excitation at 488 nm followed by IncuCyte® software analysis. Cell growth of the KMS-12-PE multiple myeloma cell line, which grows in suspension, was measured by manual cell counting. Cells were initially seeded at a density of 10^4 cells/well and incubated for 4 days after which the cell number was counted. For all cell lines, the same medium used for pregrowth was also used for the growth curve experiment, albeit with different glucose concentrations depending on the experimental design. With compound administration, the final concentration of DMSO never exceeded 0.1%. Typically, at least four technical repeats were included per condition.

[7] = system: A549 lung adenocarcinoma cells; assay: 2-deoxyglucose uptake in A549 cells; assay type: cell-based, human; settings: for Type of inhibition of 2-deoxyglucose uptake in A549 cells: Lineweaver-Burk plot analysis
Experimental: Zero-trans glucose uptake in A549 cells was approximated by measuring the uptake of [1,2-^3H]2-deoxyglucose. For this purpose, A549 cells were pregrown in RPMI medium containing 10 mM glucose in a 24-well plate to a cell density of around 100,000 cells/well. Prior to adding radioactive label, cells were gently washed twice in Krebs-Ringer-HEPES buffer (50 mM HEPES pH 7.4, 137 mM NaCl, 4.7 mM KCl, […], 1.3 mM MgSO4 and 0.1% w/v BSA) at 30° C. to remove any residual sugar. RPMI medium without sugar containing the compound intended for treatment, was added to the cells for 15 min at 37° C. to allow adequate interaction of the cells with the compound.
The uptake measurement was initiated by adding an equal volume of medium containing radiolabeled 2DG. After 3-4 min, medium was aspirated and cells were gently washed three times with ice-cold Krebs-Ringer-HEPES buffer. Cells were lysed by adding 200 μL of ice-cold 0.1 M NaOH solution and incubating the plate for 10 min at 37° C. Cell lysates were transferred to scintillation vials for subsequent scintillation counting. For blank measurements, cells were incubated with 50 μM Cytochalasin B prior to the uptake measurement.

tps1Δ cells [8] = assay: Growth rescue of tps1Δ strain on glucose (growth curves, 2% galactose medium); assay type: cell-based, S. cerevisiae; settings: 2.5 mM glucose
In short: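 Growth at 30 °C was tracked by OD595 readings every 30 min, with at least triplicate technical wells. Cells came from 2% galactose synthetic precultures, were washed and set to OD 0.1, and received compound 10 min ahead of the glucose addition.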

tps1Δ cells [9] = assay: Zero-trans glucose uptake in tps1Δ yeast cells; assay type: cell-based, S. cerevisiae; settings: 2.5 mM glucose, tps1Δ cells
Experimental: Zero-trans uptake of radioactively labeled [U-^14C]glucose, [U-^14C]fructose or [U-^14C]galactose by S. cerevisiae cells was determined in accordance with previous studies^44,66. Cells were grown on different carbon sources depending on the experiment. For measuring glucose uptake activity in the tps1Δ and tps1Δ hxtA strains (FIG. 1b,c), cells were grown on YP medium containing 3% glycerol (measurement of 10s). Typically, for compound characterization and kinetic studies in wild type and tps1Δ strains, cells were (pre)grown on Complete Synthetic medium supplemented with 2% galactose (measurement of 10s). In the experiments on the influence of hexokinase activity on the sugar uptake rate, the measurement duration was shortened to 5s and cells were always grown on YP medium containing 3% glycerol and 2% ethanol. After harvesting, cells were washed twice with ice-cold 25 mM MES-buffer pH 6, and resuspended in their respective medium without sugar to a final concentration of 45 mg (wet weight)/mL. The amount of added tracer was estimated to give a response close to at least 1000 counts per min in order to adequately counter background noise. Cells were first preincubated for 10 min at 30° C. with the compound to acclimate the cells to the temperature and to allow adequate interaction with the compound prior to uptake. Next, hexose sugar was mixed with the cell suspension, which was then incubated for 5 or 10 s, depending on the experiment, after which the cells were rapidly filtered over a glass microfiber filter (Whatman GF/C) and washed three times with ice-cold dH2O. The loaded filter was transferred to a scintillation vial containing 3 mL liquid scintillation cocktail (Ultima-Flo M, Perkin Elmer) and counted using the Hidex 300 SL. Three blank measurements per strain were typically included to account for background signal, for which the cells were first quenched before adding the radioactive label.

| SMILES | Proliferation of U266 cell line [1] | Potency in reducing maximal growth rate of A549 cells [2] | Glucose consumption and lactate production in A549 cells [3] | Glucose consumption and lactate production in KMS-12-PE cells [4] | Weight loss of one single mouse sacrificed at day 19 ([5]; daily i.p. 20 mg/kg) | Other abnormalities at autopsy ([5]; daily i.p. 5, 10, 20 mg/kg, 20 days) | Loss in body weight over 20 days [5] | AST/ALT ratio vs vehicle [5] | Blood glucose level vs vehicle [5] | Proliferation of MCF10A H-RAS^V12 cell line on 1 mM glucose [6] | pKi ([7]; Dixon plot analysis, read-out: Ki (=K′i), 2-deoxyglucose uptake in A549 cells) | Type of inhibition of 2-deoxyglucose uptake in A549 cells [7] | Growth inhibition of A549 cells at the highest concentration ([2]; 50 μM) | Toxic effects in organs at autopsy, 20 mg/kg ([5]; daily i.p. 20 mg/kg, not observed at lower concentrations) | Minimal rescue concentration for growth of tps1Δ cells on 2.5 mM glucose (tps1Δ cells [8]) | pIC50 (tps1Δ cells [9]) | Body weight drop at 10 and 5 mg/kg around day 5 and 11 ([5]; daily i.p. 10 and 5 mg/kg) | Toxic effects in organs at autopsy, 20 and 10 mg/kg ([5]; daily i.p. 20 and 10 mg/kg, not observed at lower concentrations) | Induction of apoptosis (caspase 3/7 dye) in MCF10A H-RAS^V12 cells ([6]; 1 mM glucose) | pKi ([7]; Cornish-Bowden plot analysis, printed K′, read-out: K′i, 2-deoxyglucose uptake in A549 cells) |
| --- | --- | --- | --- | --- | --- | --- | --- | --- | --- | --- | --- | --- | --- | --- | --- | --- | --- | --- | --- | --- |
| Cc1nc(NCC(=O)NCc2ccco2)c2c(-c3ccccc3)csc2n1 [WBC-4C] | inhibit proliferation | intermediate potency | inhibited | inhibited | 20% | No other abnormalities | no significant loss in body weight; also recorded: No significant difference | No significant difference | No significant difference | highest potency | 4.57 | noncompetitive |  |  |  |  |  |  |  |  |
| Cc1nc(NCC(=O)Nc2ccccc2Br)c2c(-c3cccs3)csc2n1 [WBC-15C] | inhibit proliferation | least potent | inhibited | inhibited |  |  | no significant loss in body weight; also recorded: No significant difference | No significant difference | No significant difference |  |  | competitive | failed to cause complete inhibition | toxic effects were seen in the liver and other organs |  |  |  |  |  |  |
| Cc1nc(SCC(=O)c2ccc3c(c2)NC(=O)CO3)c2c(-c3cccs3)csc2n1 [WBC-11C] | inhibit proliferation | most | inhibited | inhibited |  |  | no significant loss in body weight; also recorded: No significant difference | No significant difference | No significant difference | highest potency |  | uncompetitive |  |  | 50 µM | 4.36 | small transient drop | toxic effects were seen in the liver and other organs | strong induction of apoptosis | 5.12 |
